Row | SMILES | melting point
1 | CCC1=NC(NC(=O)Nc2cccc(C)c2)C(=O)N(CC(=O)N2CC3CCC(CC3)C2)c2ccccc21 (racemic) | 115 to 120 °C
2 | CCCCC1=NC(NC(=O)Nc2cccc(C)c2)C(=O)N(CC(=O)N2CC3CCC(CC3)C2)c2ccccc21 (racemic) | 121 to 123 °C
3 | Cc1cccc(NC(=O)NC2N=C(CC3CCCCC3)c3ccccc3N(CC(=O)N3CC4CCC(CC4)C3)C2=O)c1 (racemic) | 164 to 166 °C
4 | O=C(Nc1cccc(-c2nnn[nH]2)c1)NC1N=C(CC2CCCCC2)c2ccccc2N(CC(=O)N2CC3CCC(CC3)C2)C1=O (racemic) | 218 to 222 °C (dec.)
5 | Cc1cccc2c1N(CC(=O)c1ccccc1O)C(=O)C(NC(=O)Nc1cccc(-c3nnnn3C(c3ccccc3)(c3ccccc3)c3ccccc3)c1)N=C2c1ccccc1F (racemic) | 132.1 to 146 °C
6 | Cc1cccc2c1N(CC(=O)c1ccccc1OCC(=O)O)C(=O)C(NC(=O)Nc1cccc(-c3nnn[nH]3)c1)N=C2c1ccccc1F (racemic) | 109.6 to 113 °C
7 | Cc1cccc2c1N(CC(=O)N1CC3CCC(CC3)C1)C(=O)C(NC(=O)Nc1cccc(C=O)c1)N=C2c1ccccc1F (racemic) | 236.8 to 242.1 °C
8 | Cc1cccc2c1N(CC(=O)N1CC3CCC(CC3)C1)C(=O)C(NC(=O)Nc1cccc(C=NO)c1)N=C2c1ccccc1F (racemic) | 196 to 199 °C
9 | CC(=O)N(C(C)=O)c1ccccc1C(=O)CN1C(=O)C(NC(=O)Nc2cccc(-c3nnn[nH]3)c2)N=C(c2ccccc2F)c2cccc(C)c21 (racemic) | 192 to 216.6 °C (dec.)
10 | Cc1cccc2c1N(CC(=O)N1CC3CCC(CC3)C1)CC(NC(=O)Nc1cccc(Br)c1)N=C2c1ccccc1F (racemic) | > 250 °C
11 | CC(=NO)c1cccc(NC(=O)NC2N=C(c3ccccc3F)c3cccc(C)c3N(CC(=O)N3CC4CCC(CC4)C3)C2=O)c1 (racemic) | 199.1 to 207.8 °C
12 | Cc1cccc(NC(=O)NC2N=C(C3CCCCC3)c3cccc(C)c3N(C)C2=O)c1 (racemic) | 196.4 to 197.5 °C
13 | Cc1cccc(NC(=O)NC2N=C(c3ccccc3F)c3cccc(C)c3N(CC(=O)c3ccccc3C)C2=O)c1 (racemic) | 190.2 to 196.2 °C
14 | Cc1ccccc1C(=O)CN1C(=O)C(NC(=O)Nc2cccc(-c3nnn[nH]3)c2)N=C(c2ccccc2F)c2cccc(C)c21 (racemic) | 215.8 to 220.3 °C
15 | Cc1ccccc1C(=O)CN1C(=O)C(NC(=O)Nc2cccc(C(=O)O)c2)N=C(c2ccccc2F)c2cccc(C)c21 (racemic) | 168.1 to 176.3 °C
16 | CC(C)C1=NC(NC(=O)Nc2ccccc2)C(=O)N(CC(=O)N2CC3CCC(CC3)C2)c2ccccc21 (racemic) | 132 to 135 °C
17 | CC(C)C1=NC(NC(=O)NC2CCCCC2)C(=O)N(CC(=O)N2CC3CCC(CC3)C2)c2ccccc21 (racemic) | 138 to 140 °C
18 | CC(C)c1cccc2c1N(CC(=O)N1CC3CCC(CC3)C1)C(=O)C(NC(=O)Nc1cccc(-c3nnn[nH]3)c1)N=C2c1ccccc1F (racemic) | 212.2 to 222.1 °C
19 | Cc1cccc(NC(=O)NC2N=C(c3ccccc3F)c3cccc(C(C)C)c3N(CC(=O)N3CC4CCC(CC4)C3)C2=O)c1 (racemic) | 183.3 to 186.8 °C
20 | Cc1cccc2c1N(CC(=O)N1CC3CCC(CC3)C1)C(=O)C(NC(=O)Nc1cccc(O)c1)N=C2c1ccccc1F (racemic) | 192.8 to 203.9 °C
21 | Cc1cccc2c1N(CC(=O)N1CC3CCC(CC3)C1)C(=O)C(NC(=O)Nc1cccc(-c3nnn[nH]3)c1)N=C2C1CCCCC1 (racemic) | 186.2 to 197.6 °C
22 | Cc1cccc2c1N(Cc1ccccn1)C(=O)C(NC(=O)Nc1cccc(-c3nnn[nH]3)c1)N=C2c1ccccc1F (racemic) | 173.9 to 182 °C
23 | O=C(Nc1cccc(-c2nnn[nH]2)c1)NC1N=C(c2ccccc2F)c2cccc(Cl)c2N(CC(=O)N2CC3CCC(CC3)C2)C1=O (racemic) | 172 to 180.5 °C
24 | Cc1cccc(NC(=O)NC2N=C(C(C)C)c3ccccc3N(CC(=O)N3CC4CCC(CC4)C3)C2=O)c1 (racemic) | 123 to 126 °C
25 | Cc1cccc2c1N(CC(=O)C(C)(C)C)C(=O)C(NC(=O)Nc1cccc(-c3nnn[nH]3)c1)N=C2c1ccccc1F (racemic) | 160.4 to 180.7 °C (dec.)
26 | CC1=NC(NC(=O)Nc2cccc(C)n2)C(=O)N(CC(=O)N2CC3CCC(CC3)C2)c2c(C)cccc21 (racemic) | 150.8 to 152.1 °C
27 | CC1=NC(NC(=O)Nc2cc(C)ccn2)C(=O)N(CC(=O)N2CC3CCC(CC3)C2)c2c(C)cccc21 (racemic) | 152 to 154.1 °C

Row | SMILES | melting point
28 | CC1=NC(NC(=O)Nc2cccc(N(C)C)c2)C(=O)N(CC(=O)N2CC3CCC(CC3)C2)c2c(C)cccc21.Cl (racemic) | 190.9 to 193.1 °C
29 | CC1=NC(NC(=O)Nc2cccc(C)c2)C(=O)N(CC(=O)N2CC3CCC(CC3)C2)c2c1cccc2N(C)C.Cl (racemic) | 216.5 to 218.7 °C
30 | Cc1cccc2c1N(CC(=O)OC(C)(C)C)C(=O)C(NC(=O)Nc1cccc(-c3nnn[nH]3)c1)N=C2c1ccccc1F (racemic) | 151.4 to 174.2 °C (dec.)
31 | Cc1cccc2c1N(CC(=O)C13CC4CC(CC(C4)C1)C3)C(=O)C(NC(=O)Nc1cccc(-c3nnn[nH]3)c1)N=C2c1ccccc1F (racemic) | 195 to 218.4 °C (dec.)
32 | CC(=O)CN1C(=O)C(NC(=O)Nc2cccc(-c3nnn[nH]3)c2)N=C(c2ccccc2F)c2cccc(C)c21 (racemic) | 173.5 to 189.8 °C
33 | Cc1cccc2c1N(CC(=O)c1cccc([N+](=O)[O-])c1)C(=O)C(NC(=O)Nc1cccc(-c3nnn[nH]3)c1)N=C2c1ccccc1F (racemic) | 194.4 to 198.1 °C
34 | Cc1cccc2c1N(CC(=O)c1ccccc1[N+](=O)[O-])C(=O)C(NC(=O)Nc1cccc(-c3nnn[nH]3)c1)N=C2c1ccccc1F (racemic) | 192.2 to 197.1 °C
35 | Cc1cccc(NC(=O)NC2N=C(C(C)C)c3cccc(C)c3N(CC(=O)N3CC4CCC(CC4)C3)C2=O)c1 (racemic) | 189.9 to 192.8 °C
36 | CC1=NC(NC(=O)Nc2cccc(Br)c2)C(=O)N(CC(=O)N2CC3CCC(CC3)C2)c2c(C)cccc21 (racemic) | 168.1 to 171.1 °C
37 | CC1=NC(NC(=O)Nc2cccc(Cl)c2)C(=O)N(CC(=O)N2CC3CCC(CC3)C2)c2c(C)cccc21 (racemic) | 181.2 to 185.1 °C
38 | CSc1cccc(NC(=O)NC2N=C(C)c3cccc(C)c3N(CC(=O)N3CC4CCC(CC4)C3)C2=O)c1 (racemic) | 237.2 to 238.5 °C
39 | COc1cccc(NC(=O)NC2N=C(C)c3cccc(C)c3N(CC(=O)N3CC4CCC(CC4)C3)C2=O)c1 (racemic) | 169.6 to 170.7 °C
40 | CC1=NC(NC(=O)Nc2cccc(C)c2)C(=O)N(CC(=O)N2CC3CCC(CC3)C2)c2c(C)cccc21 (racemic) | 176.9 to 179.1 °C
41 | Cc1cccc(NC(=O)NC2N=C(CN3CC4CCC(CC4)C3)c3cccc(C)c3N(C)C2=O)c1 (racemic) | 145.6 to 149.2 °C
42 | COCC1=NC(NC(=O)Nc2cccc(C)c2)C(=O)N(CC(=O)N2CC3CCC(CC3)C2)c2c(C)cccc21 (racemic) | 178.1 to 182.1 °C
43 | Cc1cccc(NC(=O)NC2N=C(C3CC3)c3cccc(C)c3N(CC(=O)N3CC4CCC(CC4)C3)C2=O)c1 (racemic) | 172 to 174.4 °C
44 | CCC1=NC(NC(=O)Nc2cccc(C)c2)C(=O)N(CC(=O)N2CC3CCC(CC3)C2)c2c(C)cccc21 (racemic) | 130.1 to 133 °C
45 | Cc1cccc(NC(=O)NC2N=C(C3CC3)c3cccc(C)c3N(CC(=O)N3CCCCCCC3)C2=O)c1 (racemic) | 177.7 to 179.2 °C
46 | CC1=NC(NC(=O)Nc2cccc(C)c2)C(=O)N(CC(=O)N2CC3CCC(CC3)C2)c2ccccc21 (racemic) | 150 to 153 °C
47 | CSc1cccc(NC(=O)NC2N=C(C(C)C)c3ccccc3N(CC(=O)N3CC4CCC(CC4)C3)C2=O)c1 (racemic) | 134 to 135 °C
48 | CC(=O)OCC1=NC(NC(=O)Nc2cccc(C)c2)C(=O)N(CC(=O)N2CC3CCC(CC3)C2)c2c(C)cccc21 (racemic) | 133 to 134.5 °C
49 | CC1=NC(NC(=O)Nc2cccc(C)c2)C(=O)N(Cc2ncccc2C)c2ccccc21 (racemic) [8(1), N-[(3RS)-2,3-dihydro-5-methyl-1-(3-methylpyridin-2-yl)methyl-2-oxo-1H-1,4-benzodiazepin-3-yl]-N′-(3-methylphenyl)urea] | 225 to 229 °C
50 | CC(=O)c1sccc1CN1C(=O)C(NC(=O)Nc2cccc(C)c2)N=C(C)c2ccccc21 (racemic) [8(3), N-[(3RS)-1-(2-acetylthiophen-3-yl)methyl-2,3-dihydro-5-methyl-2-oxo-1H-1,4-benzodiazepin-3-yl]-N′-(3-methylphenyl)urea] | 215 to 219 °C
51 | Cc1cccc(NC(=O)NC2N=C(CCC(C)C)c3ccccc3N(Cc3ncccc3C)C2=O)c1 (racemic) [9(1), N-[(3RS)-2,3-dihydro-5-(3-methylbutyl)-1-(3-methylpyridin-2-yl)methyl-2-oxo-1H-1,4-benzodiazepin-3-yl]-N′-(3-methylphenyl)urea] | 151 to 154 °C
52 | CC(=O)c1sccc1CN1C(=O)C(NC(=O)Nc2cccc(C)c2)N=C(CCC(C)C)c2ccccc21 (racemic) [9(2), N-[(3RS)-1-(2-acetylthiophen-3-yl)methyl-2,3-dihydro-5-(3-methylbutyl)-2-oxo-1H-1,4-benzodiazepin-3-yl]-N′-(3-methylphenyl)urea] | 190 to 195 °C
53 | Cc1cccc2c1N(C)C(=O)C(NC(=O)Nc1cccc(-c3nnn[nH]3)c1)N=C2C1CCCCC1 (racemic) [17(1), N-[(3RS)-5-Cyclohexyl-2,3-dihydro-1,9-dimethyl-2-oxo-1H-1,4-benzodiazepin-3-yl]-N′-[3-(tetrazol-5-yl)phenyl]urea] | 198.9 to 200.7 °C
54 | Cc1ccccc1C(=O)CN1C(=O)C(NC(=O)Nc2cccc(-c3nnn[nH]3)c2)N=C(C2CCCCC2)c2cccc(C)c21 (racemic) [24(1), N-[(3RS)-5-Cyclohexyl-9-methyl-2,3-dihydro-1-(2-methylphenacyl)-2-oxo-1H-1,4-benzodiazepin-3-yl]-N′-[3-(tetrazol-5-yl)phenyl]urea] | 165 to 176.6 °C

Reference: patent US20020183313A1, “1,4-benzodiazepinones and their uses as CCK antagonists” (Fujisawa Pharmaceutical Co., Ltd., priority 1996, published 2002)
